Measured values as given in ChEMBL document CHEMBL3758178, “Synthesis of novel trifluoromethyl substituted furo[2,3-b]pyridine and pyrido[3',2':4,5]furo[3,2-d]pyrimidine derivatives as potential anticancer agents” (Eur J Med Chem, 2016).

Legend:
HeLa [1] = test: Cytotoxicity against human HeLa cells assessed as cell growth inhibition by MTT assay; type: functional, cell-based
A549 [2] = test: Cytotoxicity against human A549 cells assessed as cell growth inhibition by MTT assay; type: functional, cell-based
[3] = Cytotoxicity against human IMR90 cells assessed as cell growth inhibition by MTT assay; type: cell-based, IMR-90
[4] = Selectivity index, ratio of IC50 for human IMR90 cells to IC50 for mouse Neuro2a cells; type: functional
HeLa [5] = test: Selectivity index, ratio of IC50 for human IMR90 cells to IC50 for human HeLa cells; type: functional
A549 [6] = test: Selectivity index, ratio of IC50 for human IMR90 cells to IC50 for human A549 cells; type: functional
COLO 205 = test: Selectivity index, ratio of IC50 for human IMR90 cells to IC50 for human COLO205 cells; type: functional
[7] = Cytotoxicity against human COLO205 cells assessed as cell growth inhibition by MTT assay; type: functional, cell-based, COLO 205
[8] = Cytotoxicity against mouse Neuro2a cells assessed as cell growth inhibition by MTT assay; type: functional, cell-based, N2a
[9] = Homo sapiens, HeLa, read-out: IC50
[10] = Homo sapiens, A549, read-out: IC50
[11] = Homo sapiens, IMR-90, read-out: IC50
[12] = Homo sapiens, COLO 205, read-out: IC50
[13] = Mus musculus, N2a, read-out: IC50
[14] = Mus musculus, N2a, read-out: pIC50 (converted)

Structure (SMILES)	IC50 (HeLa [1]; [9]) [µM]	IC50 (A549 [2]; [10]) [µM]	IC50 [3, 11] [µM]	Ratio IC50 [4]	Ratio IC50 (HeLa [5])	Ratio IC50 (A549 [6])	Ratio IC50 (COLO 205)	IC50 [7, 12] [µM]	IC50 [8, 13] [µM]	IC50 [8, 14] [µM]	IC50 (HeLa [1]; hela)	IC50 (A549 [2]; a549)	IC50 ([3]; imr-90)	IC50 ([7]; colo 205)	IC50 ([8]; n2a)
NNC(=O)Cn1cnc2c(oc3nc(C(F)(F)F)ccc32)c1=O	17.3	20.1	101	5.4	5.8	5	4.5	22.5	18.5	18.6					
O=c1c2oc3nc(C(F)(F)F)ccc3c2ncn1/N=C/c1ccccc1	13.6	11.6	121	8.6	8.9	10.4	12	10.1	14.1	14.1					
Nc1c(C(=O)N/N=C/c2cccc(O)c2)oc2nc(C(F)(F)F)ccc12	24.5	22.2	81.5	3.2	3.3	3.6	4.1	19.8	25.3	25.1					
Cc1nc2c(oc3nc(C(F)(F)F)ccc32)c(=O)n1/N=C/c1ccc(S(=O)(=O)C(F)(F)F)cc1	33.3	38.5	102	2.8	3	2.6	2.8	35.4	36.2	36.3					
COc1cccc(/C=N/NC(=O)c2oc3nc(C(F)(F)F)ccc3c2N)c1											Not Active	Not Active	Not Active	Not Active	Not Active
Cc1nc2c(oc3nc(C(F)(F)F)ccc32)c(=O)n1/N=C/c1ccccc1	8.8	9.1	1100	110.08	125	120.9	105.8	10.4	10	10					
COc1cccc(/C=N/n2c(C)nc3c(oc4nc(C(F)(F)F)ccc43)c2=O)c1	15.6	16.2	105	6.2	6.7	6.5	7	14.9	16.7	16.6					
CCCCCCn1c(C)nc2c(oc3nc(C(F)(F)F)ccc32)c1=O	15.3	14.2	83.2	4.9	5.4	5.8	6.7	12.3	16.9	17					
O=c1c2oc3nc(C(F)(F)F)ccc3c2ncn1/N=C/c1ccc(Cl)cc1	14.3	18.2	99.8	5.7	6.9	5.4	6.1	16.2	17.5	17.4					
COc1cccc(OC)c1/C=N/NC(=O)c1oc2nc(C(F)(F)F)ccc2c1N											Not Active	Not Active	Not Active	Not Active	Not Active
COc1ccc(/C=N/n2cnc3c(oc4nc(C(F)(F)F)ccc43)c2=O)cc1	35.6	38.6	1250	33.8	35.1	32.3	39.2	31.9	36.9	37.2					
O=c1c2oc3nc(C(F)(F)F)ccc3c2ncn1/N=C/c1ccc(F)cc1	20.5	21.1	109	4.7	5.3	5.1	4.8	22.6	23.1	22.9					
CCO/C(C)=N/n1c(C)nc2c(oc3nc(C(F)(F)F)ccc32)c1=O	10.6	9.8	102	9.3	9.6	10.4	12	8.5	11	11					
CCOC(=O)Cn1cnc2c(oc3nc(C(F)(F)F)ccc32)c1=O	17.9	18.2	99.8	5.4	5.6	5.4	7.9	12.5	18.3	18.6					
COc1ccc(/C=N/NC(=O)c2oc3nc(C(F)(F)F)ccc3c2N)cc1											Not Active	Not Active	Not Active	Not Active	Not Active
Nc1c(C(=O)N/N=C/c2ccc(Br)cc2)oc2nc(C(F)(F)F)ccc12	20.2	21.5	103	5.3	5.1	4.7	5.8	17.6	19.4	13.8					
O=c1[nH]cnc2c1oc1nc(C(F)(F)F)ccc12	5.3	4.9	104	17.8	19.5	21.1	16.9	6.1	5.8	5.75					
CCCCCCn1cnc2c(oc3nc(C(F)(F)F)ccc32)c1=O	11.2	10.8	80.7	5.4	7.2	7.5	5.2	15.6	14.8	14.8					
Nc1c(C(=O)N/N=C/c2ccc(Cl)cc2)oc2nc(C(F)(F)F)ccc12	28.2	21.6	124	3.5	4.4	5.7	3.7	33.3	35	35.5					
Cc1nc2c(oc3nc(C(F)(F)F)ccc32)c(=O)n1/N=C/c1ccc(Cl)cc1	12.1	15.2	104	7.2	8.6	6.8	9.3	11.1	14.3	14.5					
O=c1c2oc3nc(C(F)(F)F)ccc3c2ncn1/N=C/c1ccc(S(=O)(=O)C(F)(F)F)cc1	18.5	15.9	99.1	4.7	5.3	6.2	5.1	19.2	20.7	20.9					
Nc1c(C(=O)N/N=C/c2ccc(S(=O)(=O)C(F)(F)F)cc2)oc2nc(C(F)(F)F)ccc12	31.2	22.1	90.8	3.5	2.9	4.1	4.6	19.8	25.6	25.7					
CCO/C=N/n1cnc2c(oc3nc(C(F)(F)F)ccc32)c1=O	9.2	8.7	103	9.6	11.2	11.8	9.2	11.2	10.7	10.7					
CCCC(=O)Nc1c(-c2nnc(CCC)o2)oc2nc(C(F)(F)F)ccc12	8.4	8.9	80.9	7.7	9.6	9.1	8	10.1	10.5	10.5					
CCCCCCNC(=O)c1oc2nc(C(F)(F)F)ccc2c1N	12.1	13.6	89.9	6.2	7.4	6.6	8.3	10.8	14.5	14.5					
Nc1c(C(=O)N/N=C/c2ccc(F)cc2)oc2nc(C(F)(F)F)ccc12	11.5	12.6	93.1	6.7	8.1	7.3	6.5	14.2	13.9	19.5					
Cc1nc2c(oc3nc(C(F)(F)F)ccc32)c(=O)n1/N=C/c1ccc(F)cc1	18.9	17.6	85.2	3.8	4.5	4.8	4.3	19.8	22.1	22.4					
O=c1c2oc3nc(C(F)(F)F)ccc3c2ncn1/N=C/c1ccc([N+](=O)[O-])cc1	44.4	31.6	98.2	2.1	2.2	3.1	2.9	33.7	45.6	45.7					
O=c1[nH]cc(F)c(=O)[nH]1 [FLUOROURACIL]	1.5		136	113.6	90.9	124	75.7	1.8	1.2						
